Measurements: PubChem BioAssay (NCI)
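Values below derive from 48-hour exposures of cells grown in 96-well plates, with endpoints linearly interpolated between the two concentrations bracketing the appropriate inhibition level. GI50 = concentration required for 50% inhibition of growth. TGI marks complete inhibition of growth.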

How the values were obtained:
Test in all cases: growth of human tumour cells (NCI), 48 h
KM12 colon = tested on: KM12 colon
HCC-2998 colon = tested on: HCC-2998 colon
SF-539 CNS = tested on: SF-539 CNS
NCI-H23 lung = tested on: NCI-H23 lung
PC-3 prostate = tested on: PC-3 prostate
EKVX NSCLC = tested on: EKVX NSCLC
A498 renal = tested on: A498 renal
MCF7 breast = tested on: MCF7 breast
SW-620 colon = tested on: SW-620 colon
SK-MEL-28 melanoma = tested on: SK-MEL-28 melanoma

## O=C(CC(O)(C(F)(F)F)C(F)(F)F)c1cc(CC(=O)C(O)(C(F)(F)F)C(F)(F)F)cc(CC(=O)C(O)(C(F)(F)F)C(F)(F)F)c1
KM12 colon
  TGI: 2.96 µM
HCC-2998 colon
  TGI: 4.19 µM
SF-539 CNS
  TGI: 4.9 µM
NCI-H23 lung
  TGI: 4.06 µM
PC-3 prostate
  TGI: 3.95 µM
EKVX NSCLC
  TGI: > 9.06 µM
A498 renal
  TGI: 5.43 µM
MCF7 breast
  TGI: 9.82 µM
SW-620 colon
  TGI: > 10 µM
SK-MEL-28 melanoma
  TGI: > 5.88 µM

## Cn1cnc([N+](=O)[O-])c1S(=O)(=O)Oc1ccccc1
KM12 colon
  GI50: 26.2 µM
  TGI: > 78.4 µM
HCC-2998 colon
  GI50: 19.3 µM
  TGI: 40.7 µM
SF-539 CNS
  GI50: 14 µM
  TGI: 29.8 µM
NCI-H23 lung
  GI50: 15 µM
  TGI: 37.9 µM
PC-3 prostate
  GI50: 20.6 µM
  TGI: 62 µM
EKVX NSCLC
  GI50: 17 µM
  TGI: 41.2 µM
A498 renal
  GI50: 16.8 µM
  TGI: 38.1 µM
MCF7 breast
  GI50: 7.82 µM
  TGI: > 44.3 µM
SW-620 colon
  GI50: 1.92 µM
  TGI: 4.34 µM
SK-MEL-28 melanoma
  GI50: 8.61 µM
  TGI: 32.2 µM

## Nc1nccc2c1ccn2-c1ccc(NC(=O)c2ccc(N3CCOCC3)c(C(F)(F)F)c2)cc1
KM12 colon
  GI50: 0.557 µM
  TGI: 8.5 µM
HCC-2998 colon
  GI50: 2.98 µM
  TGI: 29.1 µM
SF-539 CNS
  GI50: 0.491 µM
  TGI: 5.96 µM
NCI-H23 lung
  GI50: 0.94 µM
  TGI: 17.3 µM
PC-3 prostate
  GI50: 0.499 µM
  TGI: 17.4 µM
EKVX NSCLC
  GI50: 1.69 µM
  TGI: 70.2 µM
A498 renal
  GI50: 0.402 µM
  TGI: 2.94 µM
MCF7 breast
  GI50: 0.316 µM
  TGI: 1.41 µM
SW-620 colon
  GI50: 1.06 µM
  TGI: 4.14 µM
SK-MEL-28 melanoma
  GI50: 1.17 µM
  TGI: 14.1 µM

## CC1=CC(=O)[C@@H](O)[C@]2(C)[C@H]3[C@@]4(O)OC[C@]35[C@H]([C@@H](C)[C@H]4O)[C@@H](O)C(=O)O[C@@H]5C[C@@H]12
KM12 colon
  TGI: 1.72 µM
HCC-2998 colon
  TGI: 2.51 µM
SF-539 CNS
  TGI: 0.261 µM
NCI-H23 lung
  TGI: 1.7 µM
PC-3 prostate
  TGI: 1.67 µM
EKVX NSCLC
  TGI: 6.31 µM
A498 renal
  TGI: 4.45 µM
MCF7 breast
  TGI: 0.546 µM
SW-620 colon
  TGI: 6.78 µM
SK-MEL-28 melanoma
  TGI: 0.691 µM

## COc1cc(C2c3cc4c(cc3C(O)C(CO)C2CO)OCO4)cc(OC)c1OC (stereo not drawn)
KM12 colon
  GI50: 0.494 µM
  TGI: > 47 µM
HCC-2998 colon
  GI50: 1.78 µM
  TGI: > 100 µM
SF-539 CNS
  GI50: 0.335 µM
NCI-H23 lung
  GI50: 4.21 µM
  TGI: > 100 µM
PC-3 prostate
  GI50: 0.596 µM
  TGI: > 100 µM
EKVX NSCLC
  GI50: 1.27 µM
  TGI: > 71 µM
A498 renal
  GI50: 0.321 µM
MCF7 breast
  GI50: 0.355 µM
  TGI: > 100 µM
SW-620 colon
  GI50: 0.37 µM
  TGI: > 100 µM
SK-MEL-28 melanoma
  GI50: 1.6 µM
  TGI: > 100 µM

## CC1(C)OCCn2c1nc1c(N3CCOCC3)nc(-c3cnc(N)nc3)nc12
KM12 colon
  GI50: 0.761 µM
  TGI: > 100 µM
HCC-2998 colon
  GI50: 0.412 µM
  TGI: > 100 µM
SF-539 CNS
  GI50: 0.316 µM
  TGI: 2.55 µM
NCI-H23 lung
  GI50: 0.484 µM
  TGI: > 100 µM
PC-3 prostate
  GI50: 0.318 µM
  TGI: > 68.6 µM
EKVX NSCLC
  GI50: 0.16 µM
  TGI: 2.64 µM
A498 renal
  GI50: 0.133 µM
  TGI: 0.627 µM
MCF7 breast
  GI50: 0.077 µM
  TGI: > 100 µM
SW-620 colon
  GI50: 0.399 µM
  TGI: > 100 µM
SK-MEL-28 melanoma
  GI50: 0.231 µM
  TGI: 4.08 µM

## CCOc1ccc2nc(S/C(=C/C=C(C#N)C#N)c3ccc(C)cc3)sc2c1
KM12 colon
  GI50: 35.9 µM
  TGI: > 100 µM
HCC-2998 colon
  GI50: 25.1 µM
  TGI: 53.6 µM
SF-539 CNS
  GI50: 26 µM
  TGI: 57.2 µM
NCI-H23 lung
  GI50: 35.6 µM
  TGI: 97.3 µM
PC-3 prostate
  GI50: 33.9 µM
  TGI: > 100 µM
EKVX NSCLC
  GI50: > 100 µM
  TGI: > 100 µM
A498 renal
  GI50: 42.3 µM
  TGI: > 100 µM
MCF7 breast
  GI50: 17.8 µM
  TGI: 79.6 µM
SW-620 colon
  GI50: 5.35 µM
  TGI: 35.8 µM
SK-MEL-28 melanoma
  GI50: 31.1 µM
  TGI: > 100 µM
